Values of other authors, collected in patent publication US20130158028A1, “USE OF STIMULATORS AND ACTIVATORS OF SOLUBLE GUANYLATE CYCLASE FOR TREATING SICKLE-CELL ANEMIA AND CONSERVING BLOOD SUBSTITUTES” (BAYER INTELLECTUAL PROPERTY GMBH, priority 2010, published 2013).

Conditions: repeated reports

## CN1CC(=O)N2[C@H](c3ccc4c(c3)OCO4)c3[nH]c4ccccc4c3C[C@@H]2C1=O [tadalafil, (6R,12aR)-2,3,6,7,12,12a-hexahydro-2-methyl-6-(3,4-methylenedioxyphenyl)pyrazino (1′,2′:1,6) pyrido(3,4-b)indole-1,4-dione]
  incidence of back pain: increased incidence of back pain
